Assay results taken from patent US20130269045A1, “HB-EGF DEFICIENT TRANSGENIC ANIMAL AND PRODUCTION METHOD THEREOF” (Nagasaki University, priority 2012, published 2013).

Assays:
Format in all cases: in vivo
[1] = test system: HB-EGF deficient type TG mouse; experiment: Marble-burying behavior test (obsessive-compulsive disorder related anxiety-like behavior); details: 1 mg/kg i.p. once a day for 7 days; for number of the marbles that were buried: 25 marbles, 30 minutes, saline group: large, FIG. 17
Procedure: The marble-burying behavior test was carried out in accordance with the following processes. First, in a cage in which bedding was carpeted in around 5 cm depth, 25 blue-colored marbles with 17 mm were equally arranged, and the marble-burying behavior of each mouse were measured for 30 minutes. After a lapse of 30 minutes, when observed from straight above, the marbles those were buried two-thirds or more thereof with bedding were counted. Further, the acting amount of burying marbles was determined by SCANET. In the marble-burying behavior test, the more the number of marbles that buried after the test, the more the anxiety-like behavior enhanced.
(§1) As the therapeutic agent, three drugs of atomoxetine (1 mg/kg), nefiracetam (1 mg/kg), and SA4503 (1 mg/kg) were used independently to administer into the abdominal cavity once a day for 7 days in a row. As a control of the therapeutic agent, saline was administered into the abdominal cavity once a day for 7 days in a row.

[2] = test system: HB-EGF deficient type TG mouse; experiment: Nest-building test (social behavior, interest and consideration for the surrounding environment); details: 1 mg/kg i.p. once a day for 7 days; for state of the nest: collecting the cotton in one place and making the nest: FIG. 16(a); for amount of the cotton that was not used for the nest-building: Nestlet 2.5 g provided, FIG. 16(c); for rating on 5-point scale for the state of the nest: score criteria 1-5 (5 = almost perfect nest), FIG. 16(b)
Procedure: The nest-building test was carried out in accordance with the following processes. First, from one hour before the darkness period (19:00) of the light and darkness cycle (light period 8:00 to 20:00/darkness period 20:00 to 8:00), each mouse was reared alone in a new cage, and provided with Nestlet (2.5 g) that is a material for the nest-building. During the darkness period 20:00 to 8:00, each mouse acted freely, in the next morning the nest shape that was made by each mouse was scored on 5-point scale, and the unused Nestlet amount was measured. The score was determined by the following criteria.
1: 90% of the Nestlet was unused.
2: the Nestlet was slightly used, however, 50 to 90% of the Nestlet was left unused.
3: 50 to 90% of the Nestlet was torn off finely, and the shape was not maintained as the nest.
5: 90% or more of the Nestlet was torn off finely, and used as a material of the nest, the nest was dug into a crater-like shape, and the (almost) perfect nest that buries the whole body of the mouse when viewed from the side was confirmed.
as §1

[3] = test system: HB-EGF deficient type TG mouse; experiment: Cylindrical platform test (impulsivity), ratio of mice remained on the platform; details: for impulsivity (conclusion in words): HB-EGF deficient type TG mouse, 1 mg/kg i.p. once a day for 7 days; for ratio of the mice that were remained on the platform: HB-EGF deficient type mouse, 1 mg/kg into the abdominal cavity once a day for 7 days, column height 20 cm, diameter 10 cm, untreated TG only 20%, non-deficient 80% or more
Procedure: Further, the behavior of each mouse of the descending from the top of the platform to the floor was observed by classifying into the positive performing (=jumped down from the head) and the negative performing (=fall off from the tail).
as §1
In the mouse in which HB-EGF is not deficient, 80% or more of the mice were remained on the platform. On the other hand, in the HB-EGF deficient type mouse, only 20% of the mice were remained on the platform. However, in the case of administering atomoxetine to the HB-EGF deficient type mouse, 50% or more of the mice were remained on the platform. Further, in the case of administering nefiracetam to the HB-EGF deficient type mouse, 70% or more of the mice were remained on the platform.

Structure (SMILES): COc1ccc(CCN2CCN(CCCc3ccccc3)CC2)cc1OC [SA4503]
- number of the marbles that were buried [1]: the same level as that of the HB-EGF deficient type TG mouse into which saline had been administered
- social behavior, interest and consideration for the surrounding environment (conclusion in words) [2]: improved the social behavior, and the interest and consideration for the surrounding environment
- state of the nest: collecting the cotton in one place and making the nest [2]: could collect the cotton in one place and could make the nest
- amount of the cotton that was not used for the nest-building [2]: around 0.1 g
- rating on 5-point scale for the state of the nest [2]: 5

Structure (SMILES): CNCC[C@@H](Oc1ccccc1C)c1ccccc1 [atomoxetine]
- number of the marbles that were buried [1]: the same level as that of the HB-EGF deficient type TG mouse into which saline had been administered
- impulsivity (conclusion in words) [3]: the impulsivity was suppressed
- ratio of the mice that were remained on the platform [3]: ≥ 50%
- state of the nest: collecting the cotton in one place and making the nest [2]: could not collect the cotton in one place and could not make the nest
- rating on 5-point scale for the state of the nest [2]: ≤ 3

Structure (SMILES): Cc1cccc(C)c1NC(=O)CN1CCCC1=O [nefiracetam]
- anxiety-like behavior related to obsessive-compulsive disorder (conclusion in words) [1]: the anxiety-like behavior related to obsessive-compulsive disorder was decreased
- number of the marbles that were buried [1]: small
- impulsivity (conclusion in words) [3]: the impulsivity was suppressed
- ratio of the mice that were remained on the platform [3]: ≥ 70%
- social behavior, interest and consideration for the surrounding environment (conclusion in words) [2]: improved the social behavior, and the interest and consideration for the surrounding environment
- state of the nest: collecting the cotton in one place and making the nest [2]: could collect the cotton in one place and could make the nest
- amount of the cotton that was not used for the nest-building [2]: around 0.1 g
- rating on 5-point scale for the state of the nest [2]: 5
